Data taken from patent US20250206714A1, “COMPOSITIONS AND METHODS FOR TREATMENT OF INFLAMMATORY DISEASES” (Invea Therapeutics, Inc., priority 2022, published 2025).
Entries after “also recorded” stand apart in the source; their conditions may differ.

How the values were obtained:
[1] = system: IL-1β; assay: LPS+ATP-induced model of inflammasome activation, plasma IL-1β by ELISA; assay type: in vivo, Balb/c mice; conditions: for % IL-1 β inhibition: mice plasma
Procedure: The procedures detailed here can be utilized for testing all compounds of the disclosure. The example utilizes LPS+ATP-induced model of inflammasome activation in 8-10 weeks old male Balb/c mice for in vivo testing.
8-10 weeks old male Balb/c mice were challenged by intraperitoneal (i.p.) injection of 200 μg/Kg (0.2 μg/g) LPS at t=0 hr, followed by i.p. injection of 5 mM solution of ATP at t=2 hr (2 h after LPS challenge). The compound of disclosure being tested for inhibitory activity (such as Compound 6) was administered both via intraperitoneal and oral route at −1 hr. Different doses of the compound of the disclosure were given to the mice […] as shown below.
MCC950, a specific small molecule inhibitor of NLRP3 inflammasome was used as a positive control to enable comparison of inhibitory activity of the compounds of the disclosure along with a known inhibitor. 2.5 hours after the LPS priming (or 0.5 hours after ATP administration), blood was collected via retro-orbital bleeding in heparinized blood collection tubes. Blood was centrifuged for 5 minutes at 10,000 rpm in a refrigerated centrifuge to obtain plasma. Separated plasma was used for cytokine assessment by ELISA. The standard curve (OD VS concentration) for IL-1β was also plotted and used to determine the IL-1β concentration for the OD values. The percentage of inhibition of IL-1β was calculated using the formula: […]

[2] = target: T1, CYP 1A2 (Homo sapiens, UniProt P05177); assay: Metabolic stability in human liver microsomes with CYP 1A2 inhibitor Furafylline; assay type: in vitro ADME; conditions: 1 μM + Furafylline (20 μM)
T1 construct: The experiment was conducted in human liver microsomes; from tissue; host or cells: human liver microsomes
T1 sequence (P05177 1-516): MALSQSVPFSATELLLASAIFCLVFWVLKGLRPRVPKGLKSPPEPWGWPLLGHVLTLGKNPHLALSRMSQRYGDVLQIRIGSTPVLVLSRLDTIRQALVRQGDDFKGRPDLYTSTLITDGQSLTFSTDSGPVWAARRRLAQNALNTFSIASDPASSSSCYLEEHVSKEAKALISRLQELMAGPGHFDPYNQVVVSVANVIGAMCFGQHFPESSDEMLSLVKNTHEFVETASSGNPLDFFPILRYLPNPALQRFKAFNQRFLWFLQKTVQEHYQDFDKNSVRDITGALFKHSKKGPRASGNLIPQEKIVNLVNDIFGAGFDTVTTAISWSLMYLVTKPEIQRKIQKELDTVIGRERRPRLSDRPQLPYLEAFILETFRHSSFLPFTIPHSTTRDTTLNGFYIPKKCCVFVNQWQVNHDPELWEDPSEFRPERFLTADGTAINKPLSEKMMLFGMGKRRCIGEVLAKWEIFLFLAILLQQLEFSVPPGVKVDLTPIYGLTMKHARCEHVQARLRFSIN

[3] = target: T2, CYP 2C19 (Homo sapiens, UniProt P33261); assay: Metabolic stability in human liver microsomes with CYP 2C19 inhibitor Nootkatone; assay type: in vitro ADME; conditions: 1 μM + Nootkatone (20 μM)
T2 construct: The experiment was conducted in human liver microsomes; from tissue; host or cells: human liver microsomes
T2 sequence (P33261 whole entry): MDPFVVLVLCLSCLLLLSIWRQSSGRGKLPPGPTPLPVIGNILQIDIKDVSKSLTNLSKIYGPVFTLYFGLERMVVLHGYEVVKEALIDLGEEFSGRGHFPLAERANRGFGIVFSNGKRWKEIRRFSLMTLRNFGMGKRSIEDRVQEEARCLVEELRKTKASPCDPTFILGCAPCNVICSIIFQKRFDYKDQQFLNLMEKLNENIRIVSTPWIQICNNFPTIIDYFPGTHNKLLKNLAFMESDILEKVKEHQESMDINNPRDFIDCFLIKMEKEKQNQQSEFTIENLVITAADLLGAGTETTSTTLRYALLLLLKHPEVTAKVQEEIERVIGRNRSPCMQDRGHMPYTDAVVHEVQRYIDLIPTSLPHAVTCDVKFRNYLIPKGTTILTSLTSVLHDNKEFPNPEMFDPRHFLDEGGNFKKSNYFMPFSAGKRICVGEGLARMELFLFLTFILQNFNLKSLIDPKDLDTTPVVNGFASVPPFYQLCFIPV

Structure (SMILES): O=C1Nc2ccccc2N(C(=O)CCl)c2ccc(F)cc21 [Compound 6, 5-(2-chloroacetyl)-2-fluoro-5,10-dihydro-11H-dibenzo[b,e][1,4]diazepin-11-one]
- % IL-1 β inhibition ([1]; 1 mg/kg, Intraperitoneal): 52%
- % IL-1 β inhibition ([1]; 10 mg/kg, Intraperitoneal): 79%
- % IL-1 β inhibition ([1]; 10 mg/kg, Oral): 46%
- plasma IL-1β levels under in vivo conditions (FIG. 4, in words) ([1]; escalating doses, LPS+ATP mice model): dose dependent reduction of IL-β; also recorded: dose dependent decrease in IL-1β levels
- % rem @ 5 min [2]: 96.8%
- % rem @ 15 min [2]: 87.7%
- % rem @ 30 min [2]: 66.9%
- % rem @ 45 min [2]: 63.2%
- half-life at 1 µM ([2]; pH 7.4, with Furafylline 20 μM): 61.7 min
- microsomal CLint at 1 μM ([2]; pH 7.4, with Furafylline 20 μM, read-out: mCLint): 22.5 µL/min/mg
- % rem @ 5 min [3]: ~100%
- % rem @ 15 min [3]: 98.6%
- % rem @ 30 min [3]: 84.6%
- % rem @ 45 min [3]: 58.7%
- half-life at 1 µM ([3]; pH 7.4, with Nootkatone 20 μM): 54.6 min
- microsomal CLint at 1 μM ([3]; pH 7.4, with Nootkatone 20 μM, read-out: mCLint): 25.4 µL/min/mg
